How the values were obtained:
[1] = tested on: corn; assay: Test C pre-/postemergence herbicide test; assay type: in vivo, Zea mays; details: for Corn plant response rating: Preemergence
In short: (§1)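 Seeds were planted and sprayed preemergence with test chemicals in a non-phytotoxic solvent mixture containing surfactant; postemergence treatments went onto plants 2 to 18 cm tall (1- to 4-leaf stage). After 12 to 14 days in a greenhouse, injury was rated visually against untreated controls on a 0–100 scale.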

[2] = tested on: giant foxtail; assay: Test C pre-/postemergence herbicide test; assay type: in vivo, Setaria faberi; details: for Foxtail, Giant plant response rating: Preemergence
In short: as §1

[3] = tested on: johnsongrass; assay: Test C pre-/postemergence herbicide test; assay type: in vivo, Sorghum halepense; details: for Johnsongrass plant response rating: Preemergence
In short: as §1

[4] = tested on: kochia; assay: Test C pre-/postemergence herbicide test; assay type: in vivo, Kochia scoparia; details: for Kochia plant response rating: Preemergence
In short: as §1

[5] = tested on: common ragweed; assay: Test C pre-/postemergence herbicide test; assay type: in vivo, Ambrosia elatior; parameters: key to Plant response rating, Ragweed: 0 = no effect, 100 = complete control; details: for Ragweed plant response rating: Preemergence
In short: as §1

[6] = tested on: rice; assay: Test C flooded paddy test; assay type: in vivo, Oryza sativa; details: for Plant response rating, Rice: 500 g ai/ha, visual rating after 12 to 14 days
In short: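 Postemergence sprays applied to plants 2 to 18 cm tall (1- to 4-leaf stage); paddy species grown to 2-leaf stage under flooding. After 12 to 14 days in greenhouse, visual rating versus untreated controls on 0–100 scale (0 no effect, 100 complete control).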

[7] = tested on: smallflower umbrella sedge; assay: Test C flooded paddy test; assay type: in vivo, Cyperus difformis; details: for Plant response rating, Sedge, Umbrella: 500 g ai/ha, visual rating after 12 to 14 days
[8] = tested on: barnyardgrass; assay: Test A pre-/postemergence herbicide test; assay type: in vivo, Echinochloa crus-galli
In short: (§2)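 Seeds sown in sandy loam received a preemergence directed soil spray of compound in non-phytotoxic solvent with surfactant; postemergence plants (2–10 cm, one- to two-leaf stage) were sprayed to runoff at the same time. After ~10 days in greenhouse, injury was rated visually versus untreated controls (0 = no effect, 100 = complete control).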

[9] = tested on: large crabgrass; assay: Test A pre-/postemergence herbicide test; assay type: in vivo, Digitaria sanguinalis
In short: as §2

[10] = tested on: giant foxtail; assay: Test A pre-/postemergence herbicide test; assay type: in vivo, Setaria faberi
In short: as §2

[11] = 125 g ai/ha, scale 0 (no effect) to 100 (complete control), visual, 12 to 14 days, preemergence
[12] = 250 g ai/ha, scale 0-100, preemergence
[13] = 500 g ai/ha, scale 0 to 100 (0 no effect, 100 complete control), visual, 12 to 14 days, preemergence
[14] = 62 g ai/ha, preemergence, scale 0 to 100
[15] = 125 g ai/ha, scale 0 to 100 (0 no effect, 100 complete control)
[16] = 250 g ai/ha, scale of 0 to 100, 0 is no effect, 100 is complete control
[17] = scale 0 to 100 (0 no effect, 100 complete control)
[18] = 250 g ai/ha, scale 0 to 100 (0 no effect, 100 complete control), visual, 12 to 14 days, preemergence
[19] = 500 g ai/ha, scale 0 to 100, 0 no effect, 100 complete control
[20] = 62 g ai/ha, scale 0 to 100 (0 no effect, 100 complete control)
[21] = 125 g ai/ha, scale of 0 to 100, 0 is no effect, 100 is complete control
[22] = Postemergence, 250 g ai/ha, scale 0 to 100, 0 no effect, 100 complete control
[23] = postemergence, 125 g ai/ha, scale 0 to 100
[24] = postemergence, 62 g ai/ha, scale 0 to 100
[25] = Postemergence, 500 g ai/ha, 0 to 100 scale, 0 no effect, 100 complete control
[26] = Postemergence, 2000 g ai/ha, 0 to 100 scale, 0 no effect, 100 complete control
[27] = Preemergence, 2000 g ai/ha, visual rating, 0 to 100 scale (0 no effect, 100 complete control)
[28] = preemergence, 500 g ai/ha, visual injury, 0 to 100 scale (0 no effect, 100 complete control)
[29] = Postemergence, 500 g ai/ha, scale 0 to 100, 0 no effect, 100 complete control

CCN1N=C(C(C)(C)C)CC1C(=O)Nc1cc(C(=O)N2CC=CC2)ccc1F (racemic) [Compound 310]
Plant response rating, Corn [1, 11]: 0
Plant response rating, Corn [1, 12]: 5
Plant response rating, Corn [1, 13]: 10
Plant response rating, Foxtail, Giant [2, 14]: 5
Plant response rating, Foxtail, Giant [2, 11]: 40
Plant response rating, Foxtail, Giant [2, 12]: 85
Plant response rating, Foxtail, Giant [2, 13]: 100
Plant response rating, Johnsongrass [3, 14]: 0
Plant response rating, Johnsongrass [3, 11]: 10
Plant response rating, Johnsongrass [3, 12]: 20
Plant response rating, Johnsongrass [3, 13]: 80
Plant response rating, Kochia [4, 14]: 95
Plant response rating, Kochia [4, 11]: 100
Plant response rating, Kochia [4, 12]: 100
Plant response rating, Kochia [4, 13]: 100
Plant response rating, Ragweed [5, 14]: 0
Plant response rating, Ragweed [5, 12]: 50
Plant response rating, Ragweed [5, 13]: 80
Rice plant response rating ([6]; 62 g ai/ha, scale 0 to 100): 35
Rice plant response rating [6, 15]: 60
Rice plant response rating [6, 16]: 70
Plant response rating, Rice [6, 17]: 80
Sedge, Umbrella plant response rating ([7]; 62 g ai/ha, scale 0 to 100): 35
Sedge, Umbrella plant response rating [7, 15]: 85
Sedge, Umbrella plant response rating [7, 16]: 85
Plant response rating, Sedge, Umbrella [7, 17]: 85

C=CCn1nc(C(C)(C)C)cc1C(=O)Nc1cccc(C(=O)NCC)c1 [Compound 56]
Plant response rating (0 = no effect, 100 = complete control), Corn ([1]; 62 g ai/ha, preemergence): 0
Plant response rating, Corn [1, 11]: 0
Plant response rating, Corn [1, 18]: 0
Corn plant response rating [1, 19]: 0
Plant response rating (0 = no effect, 100 = complete control), Foxtail, Giant ([2]; 62 g ai/ha, preemergence): 45
Plant response rating, Foxtail, Giant [2, 11]: 85
Plant response rating, Foxtail, Giant [2, 18]: 100
Foxtail, Giant plant response rating [2, 19]: 100
Plant response rating (0 = no effect, 100 = complete control), Johnsongrass ([3]; 62 g ai/ha, preemergence): 55
Plant response rating, Johnsongrass [3, 11]: 70
Plant response rating, Johnsongrass [3, 18]: 85
Johnsongrass plant response rating [3, 19]: 90
Plant response rating (0 = no effect, 100 = complete control), Kochia ([4]; 62 g ai/ha, preemergence): 75
Plant response rating, Kochia [4, 11]: 90
Plant response rating, Kochia [4, 18]: 95
Kochia plant response rating [4, 19]: 95
Plant response rating (0 = no effect, 100 = complete control), Ragweed ([5]; 62 g ai/ha, preemergence): 60
Plant response rating, Ragweed [5, 11]: 95
Plant response rating, Ragweed [5, 18]: 95
Ragweed plant response rating [5, 19]: 95
Rice plant response rating [6, 20]: 0
Rice plant response rating [6, 21]: 15
Rice plant response rating [6, 16]: 25
Plant response rating, Rice [6, 17]: 35
Sedge, Umbrella plant response rating [7, 20]: 45
Sedge, Umbrella plant response rating [7, 21]: 85
Sedge, Umbrella plant response rating [7, 16]: 90
Plant response rating, Sedge, Umbrella [7, 17]: 90

CCNC(=O)c1ccc(F)c(NC(=O)c2cn(C(C)(C)C)nc2CC)c1 [Compound 193]
Plant response rating, Corn [1, 14]: 10
Plant response rating, Corn [1, 11]: 60
Plant response rating, Corn [1, 12]: 95
Corn plant response rating [1, 19]: 100
Plant response rating, Foxtail, Giant [2, 14]: 40
Plant response rating, Foxtail, Giant [2, 11]: 50
Plant response rating, Foxtail, Giant [2, 12]: 80
Foxtail, Giant plant response rating [2, 19]: 100
Plant response rating, Johnsongrass [3, 14]: 60
Plant response rating, Johnsongrass [3, 11]: 85
Plant response rating, Johnsongrass [3, 12]: 90
Johnsongrass plant response rating [3, 19]: 100
Plant response rating, Kochia [4, 14]: 85
Plant response rating, Kochia [4, 11]: 85
Plant response rating, Kochia [4, 12]: 100
Kochia plant response rating [4, 19]: 100
Plant response rating, Ragweed [5, 14]: 0
Plant response rating, Ragweed [5, 11]: 100
Plant response rating, Ragweed [5, 12]: 100
Ragweed plant response rating [5, 19]: 100
Rice plant response rating [6, 20]: 25
Rice plant response rating [6, 15]: 50
Rice plant response rating [6, 16]: 70
Plant response rating, Rice [6, 17]: 75
Sedge, Umbrella plant response rating [7, 20]: 75
Sedge, Umbrella plant response rating [7, 15]: 75
Sedge, Umbrella plant response rating [7, 16]: 80
Plant response rating, Sedge, Umbrella [7, 17]: 85

CCOC(=O)c1cccc(NC(=O)c2cc(C3(C)CC3)nn2CC)c1 [Compound 295]
Plant response rating, Corn [1, 22]: 15
Plant response rating, Corn [1, 23]: 10
Plant response rating, Corn [1, 24]: 5
Plant response rating, Foxtail, Giant [2, 22]: 40
Plant response rating, Foxtail, Giant [2, 23]: 35
Plant response rating, Foxtail, Giant [2, 24]: 30
Plant response rating, Johnsongrass [3, 22]: 5
Plant response rating, Johnsongrass [3, 23]: 5
Plant response rating, Johnsongrass [3, 24]: 5
Plant response rating, Kochia [4, 22]: 90
Plant response rating, Kochia [4, 23]: 85
Plant response rating, Kochia [4, 24]: 80
Plant response rating, Ragweed [5, 22]: 40
Plant response rating, Ragweed [5, 23]: 30
Plant response rating, Ragweed [5, 24]: 25
Rice plant response rating ([6]; 62 g ai/ha, scale 0 to 100): 5
Rice plant response rating [6, 15]: 10
Rice plant response rating [6, 16]: 40
Plant response rating, Rice [6, 17]: 40
Sedge, Umbrella plant response rating ([7]; 62 g ai/ha, scale 0 to 100): 80
Sedge, Umbrella plant response rating [7, 15]: 80
Sedge, Umbrella plant response rating [7, 16]: 80
Plant response rating, Sedge, Umbrella [7, 17]: 80

CCn1nc(C(C)(C)C)cc1C(=O)Nc1ccc(OC)c(OC)c1 [Compound 298]
Plant response rating, Corn [1, 14]: 0
Plant response rating, Corn [1, 11]: 10
Plant response rating, Corn [1, 12]: 15
Plant response rating, Corn [1, 13]: 30
Plant response rating, Foxtail, Giant [2, 14]: 20
Plant response rating, Foxtail, Giant [2, 11]: 70
Plant response rating, Foxtail, Giant [2, 12]: 70
Plant response rating, Foxtail, Giant [2, 13]: 100
Plant response rating, Johnsongrass [3, 14]: 20
Plant response rating, Johnsongrass [3, 11]: 40
Plant response rating, Johnsongrass [3, 12]: 60
Plant response rating, Johnsongrass [3, 13]: 90
Plant response rating, Kochia [4, 14]: 80
Plant response rating, Kochia [4, 11]: 95
Plant response rating, Kochia [4, 12]: 100
Plant response rating, Kochia [4, 13]: 100
Plant response rating, Ragweed [5, 14]: 0
Plant response rating, Ragweed [5, 12]: 0
Plant response rating, Ragweed [5, 13]: 0
Rice plant response rating ([6]; 62 g ai/ha, scale 0 to 100): 45
Rice plant response rating [6, 15]: 60
Rice plant response rating [6, 16]: 65
Plant response rating, Rice [6, 17]: 75
Sedge, Umbrella plant response rating ([7]; 62 g ai/ha, scale 0 to 100): 0
Sedge, Umbrella plant response rating [7, 15]: 0
Sedge, Umbrella plant response rating [7, 16]: 70
Plant response rating, Sedge, Umbrella [7, 17]: 80

CCn1nc(C(C)(C)C)cc1C(=O)Nc1cc(OC(F)(F)F)ccc1F [Compound 338]
Barnyardgrass plant response rating [8, 25]: 20
Plant response rating, Barnyardgrass [8, 26]: 35
Barnyardgrass plant response rating [8, 27]: 95
Barnyardgrass plant response rating [8, 28]: 60
Crabgrass, Large plant response rating [9, 25]: 20
Plant response rating, Crabgrass, Large [9, 26]: 45
Crabgrass, Large plant response rating [9, 27]: 100
Crabgrass, Large plant response rating [9, 28]: 65
Foxtail, Giant plant response rating [10, 25]: 20
Plant response rating, Foxtail, Giant [10, 26]: 30
Foxtail, Giant plant response rating [10, 27]: 100
Foxtail, Giant plant response rating [10, 28]: 80
Plant response rating, Corn [1, 22]: 10
Plant response rating, Corn [1, 29]: 10
Plant response rating, Corn [1, 23]: 0
Plant response rating, Corn [1, 24]: 0
Plant response rating, Foxtail, Giant [2, 22]: 10
Plant response rating, Foxtail, Giant [2, 29]: 10
Plant response rating, Foxtail, Giant [2, 23]: 5
Plant response rating, Foxtail, Giant [2, 24]: 5
Plant response rating, Johnsongrass [3, 22]: 0
Plant response rating, Johnsongrass [3, 29]: 0
Plant response rating, Johnsongrass [3, 23]: 0
Plant response rating, Johnsongrass [3, 24]: 0
Plant response rating, Kochia [4, 22]: 90
Plant response rating, Kochia [4, 29]: 90
Plant response rating, Kochia [4, 23]: 60
Plant response rating, Kochia [4, 24]: 50
Plant response rating, Ragweed [5, 22]: 5
Plant response rating, Ragweed [5, 29]: 10
Plant response rating, Ragweed [5, 23]: 5
Plant response rating, Ragweed [5, 24]: 0

Reference: patent publication US20060069132A1, “Azolecarboxamide herbicides” (priority 2004, published 2006)
